Test results reported in patent US20120095059A1, “Compositions and Methods for Treating Type II Diabetes and Related Disorders” (priority 2010, published 2012).

Tests used:
[1] = tested on: patients with type 2 diabetes; assay: 12-week, double blind, randomized, parallel group, multi-center study of pioglitazone, glimepiride or their combination; type: in vivo, human; settings: after 12 weeks, pioglitazone 15 mg per day, glimepiride 2 mg per day, or both; for HbA1c levels, change from baseline: baseline HbA1c greater than 8%
Method: Objective: […] Research Design and Methods: The study was a 12-week, double blind, randomized, parallel group, multi-center study, with 120 patients randomized to receive pioglitazone (15 mg per day), glimepiride (2 mg per day), or a combination of pioglitazone plus glimepiride (15 mg per day; 2 mg per day). Patients started a strict dietary regimen 1 week before receiving the first dose of each treatment. The study was open to patients with type 2 diabetes mellitus and having HbA1c levels greater than 8%. Patients were over 30 years of age and have had diabetes for at least 1 year.

[2] = tested on: patients with advanced type 2 diabetes; assay: Predicted effect of adding metformin as a third agent, based upon a meta-analysis of metformin clinical trials; type: in vivo, human; settings: metformin added as third agent to pioglitazone plus glimepiride
Description: Patients having HbA1c levels greater than 7% have a high risk for developing cardiovascular disease and other complications of diabetes. Thus, in these patients, it is necessary to add a third agent to the regimen in order to obtain HbA1c values below 7%. Based upon a meta-analysis of metformin clinical trials, the addition of metformin as a third agent to this regimen will produce an additional reduction in HbA1c of about 1% and will contribute to adequate glycemic control in such patients with advanced type 2 diabetes. The addition of metformin in this triple therapy provides a synergistic mechanism of action, both improving insulin sensitivity and suppressing hepatic glucose output.

[3] = tested on: patients with type 2 diabetes mellitus; settings: monotherapy; Rosenstock et al., Diabetes Care 25:1529-1533 (2002); cited from earlier work

Row | SMILES | fasting blood glucose, decrease from baseline [1] [mg/dL] | HbA1c levels, change from baseline [1] [%] | additional reduction in HbA1c [2] | reduction in HbA1c [3] [%]
1 | CCc1ccc(CCOc2ccc(CC3SC(=O)NC3=O)cc2)nc1 (stereo not drawn) [pioglitazone] | -28 | −0.14 |  | 
2 | CN(C)C(=N)N=C(N)N [metformin] |  |  | about 1% | 
3 | CC(C)[C@H]1CC[C@H](C(=O)N[C@H](Cc2ccccc2)C(=O)O)CC1 [nateglinide] |  |  |  | 0.6
4 | CCC1=C(C)CN(C(=O)NCCc2ccc(S(=O)(=O)NC(=O)N[C@H]3CC[C@H](C)CC3)cc2)C1=O [glimepiride] | -22 | −0.98 |  | 
